Experimental data published in publication PMC8421423, “Cellular model system to dissect the isoform-selectivity of Akt inhibitors” (Nature Communications, 2021).
“And” between values parts separate entries of the source, which are not always exact repeats. Equal values may be shown once. Read-outs that look alike come from different tables or passages of the source.

Experiments:
[1] = test system: Ba/F3^myr-Akt2 cells; experiment: CellTiter-Glo cell viability assay
Experimental: (§1) On day 0, cells were plated into white 384-well cell culture plates (Greiner Bio-One) using a Multidrop reagent dispenser (Thermo Fisher Scientific) at cell numbers that ensure linear and optimal luminescent signal intensity (Ba/F3myr-Akt1: 600 cells/well, Ba/F3myr-Akt2: 800 cells/well, Ba/F3myr-Akt3: 800 cells/well). […] Cell viability was analyzed on day 4 using the CellTiter-Glo Assay (Promega) as per the manufacturer’s instructions. […] All experimental points were measured in duplicates for each plate and were replicated in at least three plates.

[2] = test system: Ba/F3^myr-Akt1 cells; experiment: CellTiter-Glo cell viability assay; settings: for Log ratio EC50 [Akt] / EC50 [Akt], Akt1 / Akt2: cell viability assay Ba/F3 myr-Akt cells, log units
[3] = target: Akt1 (Homo sapiens, UniProt P31749); experiment: STK HTRF KinEASE activity-based assay (IC50); settings: for Log ratio IC50 [Akt] / IC50 [Akt], Akt1 / Akt2: biochemical activity based assay, log units
Sequence of Akt1 (P31749 whole entry): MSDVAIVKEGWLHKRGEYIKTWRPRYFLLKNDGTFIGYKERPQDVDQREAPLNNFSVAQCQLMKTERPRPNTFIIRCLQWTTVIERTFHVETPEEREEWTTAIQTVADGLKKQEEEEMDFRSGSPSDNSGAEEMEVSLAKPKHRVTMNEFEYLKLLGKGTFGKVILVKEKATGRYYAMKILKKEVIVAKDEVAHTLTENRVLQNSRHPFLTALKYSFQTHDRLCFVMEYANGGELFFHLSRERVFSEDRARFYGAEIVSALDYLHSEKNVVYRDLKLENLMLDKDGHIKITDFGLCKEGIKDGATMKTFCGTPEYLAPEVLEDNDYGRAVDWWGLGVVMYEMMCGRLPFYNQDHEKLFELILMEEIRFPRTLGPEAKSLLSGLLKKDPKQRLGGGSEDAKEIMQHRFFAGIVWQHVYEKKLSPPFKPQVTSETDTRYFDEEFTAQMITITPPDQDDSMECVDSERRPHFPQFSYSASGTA

[4] = test system: parental Ba/F3 cells; experiment: CellTiter-Glo cell viability assay; type: cell-based, murine
Experimental: as §1

[5] = target: Akt3 (Homo sapiens, UniProt Q9Y243); experiment: STK HTRF KinEASE activity-based assay (IC50)
Sequence of Akt3 (Q9Y243 whole entry): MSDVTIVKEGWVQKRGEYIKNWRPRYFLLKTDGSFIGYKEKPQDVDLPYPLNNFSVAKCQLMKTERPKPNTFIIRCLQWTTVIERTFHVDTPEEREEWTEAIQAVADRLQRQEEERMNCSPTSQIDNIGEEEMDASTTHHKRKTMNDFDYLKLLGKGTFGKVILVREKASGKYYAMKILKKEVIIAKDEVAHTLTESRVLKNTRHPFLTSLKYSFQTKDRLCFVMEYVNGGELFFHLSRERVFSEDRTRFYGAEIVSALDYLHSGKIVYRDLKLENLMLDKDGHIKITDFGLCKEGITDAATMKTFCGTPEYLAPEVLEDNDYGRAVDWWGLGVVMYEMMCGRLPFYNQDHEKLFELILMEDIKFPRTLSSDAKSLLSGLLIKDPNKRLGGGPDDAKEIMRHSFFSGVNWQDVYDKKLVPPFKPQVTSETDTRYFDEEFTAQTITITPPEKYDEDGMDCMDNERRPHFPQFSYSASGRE
Experimental: The biochemical half maximal inhibitory concentrations (IC50) were determined with the STK HTRF KinEASE assay (Cisbio) according to the manufactor’s instructions. Briefly: 5 µL Kinase solution and 2.5 µL inhibitor solution (8% DMSO in HTRF buffer) were incubated for 1 h before the reaction was started by addition of 2.5 µL starting solution containing ATP and substrate peptide. […] After reaction completion (Akt1: 60 min, Akt2: 20 min, Akt3: 15 min), 10 µL of stop solution were added. […] The quotient of both intensities were recorded at eight different inhibitor concentrations and data fit to a Hill 4-parameter equation with Quattro software suite (Quattro Research GmbH, Martinsried, Germany). Each reaction was performed in duplicates and at least three independent determinations of each IC50 were made.

[6] = target: Akt2 (Homo sapiens, UniProt P31751); experiment: STK HTRF KinEASE activity-based assay (IC50)
Sequence of Akt2 (P31751 whole entry): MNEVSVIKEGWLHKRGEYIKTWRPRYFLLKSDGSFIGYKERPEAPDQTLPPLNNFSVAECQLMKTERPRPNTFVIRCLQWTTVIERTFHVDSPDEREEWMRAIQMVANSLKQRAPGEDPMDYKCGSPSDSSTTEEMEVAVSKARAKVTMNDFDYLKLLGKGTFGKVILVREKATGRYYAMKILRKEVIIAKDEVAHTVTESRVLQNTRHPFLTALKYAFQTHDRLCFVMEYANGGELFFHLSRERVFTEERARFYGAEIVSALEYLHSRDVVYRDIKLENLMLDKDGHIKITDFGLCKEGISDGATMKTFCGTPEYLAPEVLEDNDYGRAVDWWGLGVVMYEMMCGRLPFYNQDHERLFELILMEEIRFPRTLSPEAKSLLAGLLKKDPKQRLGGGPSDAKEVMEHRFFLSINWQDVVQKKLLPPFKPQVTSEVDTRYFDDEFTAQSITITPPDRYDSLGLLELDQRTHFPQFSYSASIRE

[7] = test system: Ba/F3^myr-Akt3 cells; experiment: CellTiter-Glo cell viability assay; settings: for Log ratio EC50 [Akt] / EC50 [Akt], Akt3 / Akt2: cell viability assay Ba/F3 myr-Akt cells, log units
[8] = Mus musculus, read-out: CTG BaF3myr-Akt2, Mean, mean of replicates
[9] = read-out: CTG BaF3myr-Akt2, individual determinations, single replicates
[10] = Mus musculus, read-out: CTG BaF3myr-Akt1, Mean, mean of replicates
[11] = Mus musculus, read-out: CTG BaF3myr-Akt1, individual determinations, single replicates
[12] = read-out: CTG BaF3myr-Akt1, individual determinations, single replicates
[13] = HTRF IC50 Akt1, Mean, mean of replicates
[14] = HTRF IC50 Akt1, individual determinations, single replicates
[15] = IC50 Akt1, HTRF, ATP at KM, 1 h preincubation
[16] = Mus musculus, BaF3, parental cells, single replicates, read-out: CTG BaF3, individual determinations
[17] = parental cells, single replicates, read-out: CTG BaF3, individual determinations
[18] = HTRF IC50 Akt3, individual determinations, single replicates
[19] = IC50 Akt3, HTRF, ATP at KM, 1 h preincubation
[20] = HTRF IC50 Akt2, individual determinations, single replicates
[21] = IC50 Akt2, HTRF, ATP at KM, 1 h preincubation
[22] = Mus musculus, read-out: CTG BaF3myr-Akt3, Mean, mean of replicates
[23] = Mus musculus, read-out: CTG BaF3myr-Akt3, individual determinations, single replicates
[24] = read-out: CTG BaF3myr-Akt3, individual determinations, single replicates
[25] = Mus musculus, BaF3, CTG, parental BaF3 cell line, read-out: EC50 BaF3
[26] = Mus musculus, BaF3, parental cells, mean of replicates, read-out: CTG BaF3, Mean
[27] = HTRF IC50 Akt3, Mean, mean of replicates
[28] = HTRF IC50 Akt2, Mean, mean of replicates
[29] = Mus musculus, read-out: CTG BaF3myr-Akt2, individual determinations, single replicates

SMILES | EC50 [1, 8] [µM] | EC50 [1, 9] | EC50 [2, 10] [µM] | Log ratio EC50 [Akt] / EC50 [Akt], Akt1 / Akt2 [2] | EC50 [2, 12] | IC50 [3, 13] [µM] | IC50 [3, 14] | IC50 [3, 15] [µM] | Log ratio IC50 [Akt] / IC50 [Akt], Akt1 / Akt2 [3] | EC50 [4, 16] [µM] | EC50 [4, 17] | IC50 [5, 18] | IC50 [5, 19] [µM] | IC50 [6, 20] | IC50 [6, 21] [µM] | EC50 [7, 22] [µM] | EC50 [7, 23] [µM] | Log ratio EC50 [Akt] / EC50 [Akt], Akt3 / Akt2 [7] | EC50 [7, 24] | EC50 [4, 26] [µM] | other results
C=CC(=O)Nc1ccc2[nH]c(=O)n(C3CCN(Cc4ccc(-c5ncc(Cc6ccc(C)o6)cc5-c5ccccc5)cc4)CC3)c2c1 [compound 15] | 14.3 | 11.5 µM and 13.9 µM and 23.9 µM and 7.94 µM | 26.7 | 0.27 | 22.1 µM | 0.604 | 0.57 µM and 0.597 µM and 0.645 µM | 0.604 ± 0.031 | -0.37 | > 30 | > 30 µM and 25.7 µM | 4.83 µM and 5.38 µM and 2.87 µM | 4.36 ± 1.08 | 1.3 µM and 1.34 µM and 1.56 µM | 1.4 ± 0.112 | 17.2 | 15.7 | -0.08 | 18.6 µM and 17.2 µM |  | EC50 [2, 11]: 28 µM
C=CC(=O)Nc1ccc2[nH]c(=O)n(C3CCN(Cc4ccc(-c5ncc(C(=O)Nc6ccccn6)cc5-c5ccccc5)cc4)CC3)c2c1 [compound 23] | 2.76 | 4.03 µM and 2.63 µM and 1.62 µM | 14.6 | 0.72 | 8.09 µM and 10.5 µM and 25.3 µM | 0.13 | 0.128 µM and 0.117 µM and 0.144 µM | 0.13 ± 0.011 | -0.07 | > 30 | > 30 µM | 3.66 µM and 8.18 µM and 7.06 µM | 6.3 ± 1.92 | 0.117 µM and 0.167 µM and 0.17 µM | 0.151 ± 0.025 | 17.1 |  | -0.79 | 9.71 µM and 24.4 µM and 23.9 µM | > 30 | EC50 [4, 25]: > 30 µM; IC50 [5, 27]: 6.3 µM; IC50 [6, 28]: 0.152 µM
C=CC(=O)Nc1ccc2[nH]c(=O)n(C3CCN(Cc4ccc(-c5ncc(C(=O)O)cc5-c5ccccc5)cc4)CC3)c2c1 [compound 4] |  | > 30 µM |  | 0 | > 30 µM |  |  |  | -0.75 |  | > 30 µM |  |  |  |  |  |  | 0 | > 30 µM |  | EC50 BaF3myr-Akt2 ([1]; CTG): generally inactive; EC50 ([1]; read-out: CTG BaF3myr-Akt2, Mean, mean of replicates): > 30 µM; EC50 ([1]; read-out: EC50 BaF3myr-Akt2, CTG): > 30 µM; EC50 BaF3myr-Akt1 ([2]; CTG): generally inactive; EC50 ([2]; read-out: CTG BaF3myr-Akt1, Mean, mean of replicates): > 30 µM; EC50 ([2]; read-out: EC50 BaF3myr-Akt1, CTG): > 30 µM; IC50 ([3]; read-out: HTRF IC50 Akt1, Mean, mean of replicates): 0.0443 µM; IC50 ([3]; read-out: HTRF IC50 Akt1, individual determinations, single replicates): 0.0455 µM and 0.0221 µM and 0.0653 µM; IC50 ([3]; read-out: IC50 Akt1, HTRF, ATP at KM, 1 h preincubation): 0.044 ± 0.018 µM; EC50 ([4]; CTG, parental BaF3 cell line, read-out: EC50 BaF3): > 30 µM; EC50 ([4]; parental cells, mean of replicates, read-out: CTG BaF3, Mean): > 30 µM; IC50 ([5]; read-out: HTRF IC50 Akt3, individual determinations, single replicates): 5.7 µM and 7.19 µM and 8.39 µM; IC50 ([5]; read-out: IC50 Akt3, HTRF, ATP at KM, 1 h preincubation): 6.45 ± 0.742 µM; IC50 ([6]; read-out: HTRF IC50 Akt2, Mean, mean of replicates): 0.248 µM; IC50 ([6]; read-out: HTRF IC50 Akt2, individual determinations, single replicates): 0.189 µM and 0.309 µM and 0.245 µM; IC50 ([6]; read-out: IC50 Akt2, HTRF, ATP at KM, 1 h preincubation): 0.248 ± 0.049 µM; EC50 BaF3myr-Akt3 ([7]; CTG): generally inactive; EC50 ([7]; read-out: CTG BaF3myr-Akt3, Mean, mean of replicates): > 30 µM; EC50 ([7]; read-out: EC50 BaF3myr-Akt3, CTG): > 30 µM
C=CC(=O)Nc1ccc2[nH]c(=O)n(C3CCN(Cc4ccc(-c5ncc(C(=O)OC)cc5-c5ccccc5)cc4)CC3)c2c1 [compound 5] | 2.71 | 3.75 µM and 1.35 µM and 1.68 µM | 4.92 | 0.26 | 4.17 µM and 4.75 µM | 0.0355 | 0.038 µM and 0.0373 µM and 0.0312 µM | 0.035 ± 0.004 | -0.52 | 18.7 | 12.7 µM and 17.6 µM | 3.96 µM and 3.22 µM and 3.01 µM | 3.4 ± 0.406 | 0.119 µM and 0.116 µM and 0.114 µM | 0.116 ± 0.002 | 7.65 | 7.73 | -0.45 | 7.85 µM and 7.37 µM | 16.3 | EC50 [2, 11]: 5.83 µM; IC50 [5, 27]: 3.4 µM; IC50 [6, 28]: 0.116 µM
C=CC(=O)Nc1ccc2[nH]c(=O)n(C3CCN(Cc4ccc(-c5ncc(Cc6cccc(O)c6)cc5-c5ccccc5)cc4)CC3)c2c1 [compound 16] |  | 16.5 µM and > 30 µM | > 30 | 0.07 | > 30 µM | 9.48 | 10.2 µM and 9 µM and 9.2 µM | 9.48 ± 0.665 | 1.14 | > 30 | > 30 µM | 4.32 µM and 3.56 µM and 8.14 µM | 5.34 ± 2.01 | 0.766 µM and 1.08 µM and 0.599 µM | 0.682 ± 0.083 | > 30 | > 30 | -0.07 | > 30 µM | > 30 | EC50 [1, 29]: > 30 µM; EC50 BaF3myr-Akt1 ([2]; CTG): generally inactive; EC50 [2, 11]: > 30 µM; EC50 ([2]; Mus musculus, read-out: EC50 BaF3myr-Akt1, CTG): > 30 µM; EC50 [4, 25]: > 30 µM; IC50 [5, 27]: 5.34 µM; IC50 [6, 28]: 0.682 µM; EC50 BaF3myr-Akt3 ([7]; CTG): generally inactive; EC50 ([7]; Mus musculus, read-out: EC50 BaF3myr-Akt3, CTG): > 30 µM
C=CC(=O)Nc1ccc2[nH]c(=O)n(C3CCN(Cc4ccc(-c5ncc(Cc6ccc(N)cc6)cc5-c5ccccc5)cc4)CC3)c2c1 [compound 19] | 2.89 | 3.83 µM and 2.66 µM | 12.7 | 0.64 | 19.7 µM and 8.66 µM and 9.89 µM | 1.8 | 1.9 µM and 1.84 µM and 1.65 µM | 1.8 ± 0.105 | 0.55 |  | 6.98 µM and 7.49 µM and 18.8 µM | 2.03 µM and 1.41 µM and 1.09 µM | 1.51 ± 0.389 | 0.523 µM and 0.43 µM and 0.581 µM | 0.511 ± 0.062 | 7.44 | 6.61 | -0.41 | 7.03 µM and 8.07 µM | 12.5 | EC50 [1, 29]: 2.19 µM; loss of potency of the anilinic CAAI ([5]; Akt3, biochemical IC50): 10 fold; IC50 [5, 27]: 1.51 µM; IC50 [6, 28]: 0.511 µM
